Molecules are shown by their SMILES.

Sequence of Pol Theta (1-894) (O75417 1-894): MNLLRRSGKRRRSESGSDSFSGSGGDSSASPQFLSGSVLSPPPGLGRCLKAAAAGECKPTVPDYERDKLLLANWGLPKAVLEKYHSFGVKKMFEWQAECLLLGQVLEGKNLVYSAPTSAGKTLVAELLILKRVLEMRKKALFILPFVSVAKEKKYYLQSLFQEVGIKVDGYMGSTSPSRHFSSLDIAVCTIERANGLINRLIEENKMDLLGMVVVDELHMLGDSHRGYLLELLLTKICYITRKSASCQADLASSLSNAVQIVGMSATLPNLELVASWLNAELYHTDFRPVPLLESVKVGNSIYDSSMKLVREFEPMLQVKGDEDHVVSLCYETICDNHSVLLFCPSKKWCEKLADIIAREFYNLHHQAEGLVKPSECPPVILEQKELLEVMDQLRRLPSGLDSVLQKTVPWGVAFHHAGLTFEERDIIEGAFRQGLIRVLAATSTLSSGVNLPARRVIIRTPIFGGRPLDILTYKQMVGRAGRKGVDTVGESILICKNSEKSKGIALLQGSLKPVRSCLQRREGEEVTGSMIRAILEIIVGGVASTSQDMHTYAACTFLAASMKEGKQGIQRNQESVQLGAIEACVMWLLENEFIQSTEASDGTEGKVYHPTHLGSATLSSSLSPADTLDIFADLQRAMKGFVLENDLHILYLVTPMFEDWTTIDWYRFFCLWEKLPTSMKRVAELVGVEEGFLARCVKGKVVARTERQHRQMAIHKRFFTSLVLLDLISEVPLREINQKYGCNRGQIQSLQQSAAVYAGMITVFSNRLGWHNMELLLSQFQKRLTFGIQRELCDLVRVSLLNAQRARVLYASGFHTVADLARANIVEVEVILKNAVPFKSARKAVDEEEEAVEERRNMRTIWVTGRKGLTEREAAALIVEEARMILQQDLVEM

This assay has as its target Pol Theta (1-894) (Homo sapiens (Human), UniProt O75417). Description: Biochemical Pol Theta (1-894) ATPase IC50 assay (ADP-Glo, ssDNA substrate). Particulars: ADP-Glo assay with ssDNA substrate, room temperature. How it is done:
Baculovirus Expression of Human POL theta (1-894)
Human POL Theta (1-894)-His-pFastBac1 baculovirus samples were generated using the Bac-to-Bac baculovirus expression system (Invitrogen) according to the manufacturer's protocol. […] Baculovirus amplification was achieved using infected SF9 cells at 1:2000 virus/cells ratios, and grown for 96 hours at 27° C. post-transfection. The expression scaled up for each protein was carried out in the flask 3 L from CORNING. 4 L of 3×10^6 cells/mL Sf9 cells (Expression System, Invitrogen) grown in SF900TM II SFM insect medium (Expression System) were infected with virus stock at 1:200 virus/cell ratios, and grown for 48 hours at 27° C. post-transfection. The infected cell culture was harvested by centrifugation at 6000 rpm for 15 min 4° C. in a SORVALL LYNX6000 centrifuge. The cell pellets were stored at −80° C.
The human POL Theta (1-894)-His produced as described above, were purified from Sf9 baculovirus-infected insect cell paste. The cells were lysed using sonication method, and the lysates were clarified by centrifugation.
Enzymatic reactions of Pol Theta (1-894) were performed using ADP-Glo assay with ssDNA substrate. Pol Theta (1-894) was expressed in baculovirus expression system. The inhibition activities testing for the compound disclosed herein were carried out at room temperature in assay buffer containing 40 mM Tris pH 7.5, 20 mM MgCl2, 1 mM DTT, 0.01% BSA and 0.05% Tween-20. Compounds in DMSO were dispensed into wells of a black 384 well plate (Corning 4514) using D300e digital dispenser (Tecan). The ranges of compounds final concentration were 2.62 nM˜10000 nM. 3 μL 2× enzyme solution containing 12.5 nM enzyme was added to wells. […] After 1 hour reaction, 5 μL ADP-Glo reagent (Promga V9102) was added and incubated for 40 minutes. 10 μL Kinase Detection reagent was added and incubated for 40 minutes. Luminescence was measured on a microplate reader (PHERAstar FSX, BMG labtech). The IC50 values were calculated based on inhibition of enzyme activity in the presence of increasing concentrations of compounds.
(ADP-Glo first removes unused ATP, then detects ADP through luciferase.)
In general, IC50 refers to the midpoint of a concentration-inhibition curve. In turn, `COc1ccccc1-c1cc(C#N)ncc1C(=O)Nc1nc2ccc(-c3ccc(NC(C)=O)cc3)nc2s1` [Example 27, N-(5-(4-acetamidophenyl)thiazolo[5,4-b]pyridin-2-yl)-6-cyano-4-(2-methoxyphenyl)nicotinamide] returned a half-maximal inhibitory concentration (IC50) of 67 nM. That is a double-digit nanomolar value.
Take `COCc1ccc(OC)c(-c2cc(C)ncc2C(=O)Nc2nc3ccc(-c4ccc(NC(C)=O)cc4)nc3s2)c1` [Example 28, N-(5-(4-acetamidophenyl)thiazolo[5,4-b]pyridin-2-yl)-4-(2-methoxy-5-(methoxymethyl)phenyl)-6-methylnicotinamide]: the IC50 came out at 256 nM.
Take `COc1ccc(C#N)cc1-c1cc(C)ncc1C(=O)Nc1nc2ccc(-c3ccc(C4(C#N)CC4)cc3)nc2s1` [Example 29, 4-(5-cyano-2-methoxyphenyl)-N-(5-(4-(1-cyanocyclopropyl)phenyl)thiazolo[5,4-b]pyridin-2-yl)-6-methylnicotinamide]: half-maximal inhibition (IC50) was put at 57 nM.
In turn, `COc1ccc(C#N)cc1-c1cc(C)ncc1C(=O)Nc1nc2ccc(-c3ccc(F)cc3)nc2s1` [Example 30, 4-(5-cyano-2-methoxyphenyl)-N-(5-(4-fluorophenyl)thiazolo[5,4-b]pyridin-2-yl)-6-methylnicotinamide] registered a concentration for half-maximal inhibition (IC50) of 222 nM.
To `COc1cccc(F)c1-c1cnccc1C(=O)Nc1nc2ccc(-c3ccc(NC(C)=O)cc3)nc2s1` [Example 31, N-(5-(4-acetamidophenyl)thiazolo[5,4-b]pyridin-2-yl)-3-(2-fluoro-6-methoxyphenyl)isonicotinamide] belongs 70 nM; to `COc1ccc(C#N)cc1-c1cc(C)ncc1C(=O)Nc1nc2ccc(-c3ccc(N(C)S(C)(=O)=O)cc3)nc2s1` [Example 32, 4-(5-cyano-2-methoxyphenyl)-6-methyl-N-(5-(4-(N-methylmethylsulfonamido)phenyl)thiazolo[5,4-b]pyridin-2-yl)nicotinamide], 26 nM.
In turn, `COc1ccc(C#N)cc1-c1cc(Cl)ncc1C(=O)Nc1nc2ccc(-c3ccc(C#N)cc3)nc2s1` [Example 33, 6-chloro-4-(5-cyano-2-methoxyphenyl)-N-(5-(4-cyanophenyl)thiazolo[5,4-b]pyridin-2-yl)nicotinamide] registered an IC50 of 8.5 nM.
On to `COc1ccc(C#N)cc1-c1cc(CC#N)ncc1C(=O)Nc1nc2ccc(-c3ccc(C#N)cc3)nc2s1` [Example 34, 4-(5-cyano-2-methoxyphenyl)-6-(cyanomethyl)-N-(5-(4-cyanophenyl)thiazolo[5,4-b]pyridin-2-yl)nicotinamide], for which 16 nM corresponded to half-maximal inhibition (IC50).
In turn, `CCS(=O)(=O)Nc1ccc(-c2ccc3nc(NC(=O)c4cnc(C)cc4-c4cc(C#N)ccc4OC)sc3n2)cc1` [Example 35, 4-(5-cyano-2-methoxyphenyl)-N-(5-(4-(ethylsulfonamido)phenyl)thiazolo[5,4-b]pyridin-2-yl)-6-methylnicotinamide] came in with an IC50 of 94 nM.
To `COc1ccc(C#N)cc1-c1cc(C#N)ncc1C(=O)Nc1nc2ccc(-c3ccc(NC(C)=O)cc3)nc2s1` [Example 36, N-(5-(4-acetamidophenyl)thiazolo[5,4-b]pyridin-2-yl)-6-cyano-4-(5-cyano-2-methoxyphenyl)nicotinamide] belongs 73 nM.
For `COc1ccc(C#N)cc1-c1cc(C(F)(F)F)ncc1C(=O)Nc1nc2ccc(-c3ccc(C#N)cc3)nc2s1` [Example 37, 4-(5-cyano-2-methoxyphenyl)-N-(5-(4-cyanophenyl)thiazolo[5,4-b]pyridin-2-yl)-6-(trifluoromethyl)nicotinamide], it took 151 nM to reach half-maximal inhibition (IC50).
In the case of `COc1ccc(C#N)cc1-c1ccncc1C(=O)Nc1nc2ccc(-c3ccc(C#N)cc3)nc2s1` [Example 38, 4-(5-cyano-2-methoxyphenyl)-N-(5-(4-cyanophenyl)thiazolo[5,4-b]pyridin-2-yl)nicotinamide], the 50% inhibitory concentration (IC50) was determined as 11 nM.
On to `COc1ccc(C#N)cc1-c1cc(F)ncc1C(=O)Nc1nc2ccc(-c3ccc(C#N)cc3)nc2s1` [Example 39, 4-(5-cyano-2-methoxyphenyl)-N-(5-(4-cyanophenyl)thiazolo[5,4-b]pyridin-2-yl)-6-fluoronicotinamide], for which the half-inhibitory concentration (IC50) stood at 73 nM.
As to `COc1ccc(C#N)cc1-c1cc(C)ncc1C(=O)Nc1nc2ccc(-c3ccc(C(F)(F)F)cc3)nc2s1` [Example 40, 4-(5-cyano-2-methoxyphenyl)-6-methyl-N-(5-(4-(trifluoromethyl)phenyl)thiazolo[5,4-b]pyridin-2-yl)nicotinamide], half-maximal inhibition (IC50) required 87 nM.
Regarding `CCC(=O)Nc1ccc(-c2ccc3nc(NC(=O)c4cnc(C)cc4-c4cc(C#N)ccc4OC)sc3n2)cc1` [Example 41, 4-(5-cyano-2-methoxyphenyl)-6-methyl-N-(5-(4-propionamidophenyl)thiazolo[5,4-b]pyridin-2-yl)nicotinamide], 91 nM corresponded to half-maximal inhibition (IC50).
On to `COc1ccc(C#N)cc1-c1cc(C)ncc1C(=O)Nc1nc2ccc(-c3ccc(NC(=O)CO)cc3)nc2s1` [Example 42, 4-(5-cyano-2-methoxyphenyl)-N-(5-(4-(2-hydroxyacetamido)phenyl)thiazolo[5,4-b]pyridin-2-yl)-6-methylnicotinamide], for which inhibition was half-maximal at 65 nM (IC50). This IC50 and that of the molecule before are within 1.5-fold of each other.
As for `COc1ccc(C#N)cc1-c1cc(C)ncc1C(=O)Nc1nc2ccc(-c3ccc(N4CCOC4=O)cc3)nc2s1` [Example 43, 4-(5-cyano-2-methoxyphenyl)-6-methyl-N-(5-(4-(2-oxooxazolidin-3-yl)phenyl)thiazolo[5,4-b]pyridin-2-yl)nicotinamide], the IC50 came to 75 nM.
To `COc1ccc(C#N)cc1-c1cc(C)ncc1C(=O)Nc1nc2ccc(-c3ccc(CO)cc3)nc2s1` [Example 44, 4-(5-cyano-2-methoxyphenyl)-N-(5-(4-(hydroxymethyl)phenyl)thiazolo[5,4-b]pyridin-2-yl)-6-methylnicotinamide] belongs 14 nM.
As to `COc1ccc(C#N)cc1-c1cc(C)ncc1C(=O)Nc1nc2ccc(-c3ccc(N4CCCC4=O)cc3)nc2s1` [Example 45, 4-(5-cyano-2-methoxyphenyl)-6-methyl-N-(5-(4-(2-oxopyrrolidin-1-yl)phenyl)thiazolo[5,4-b]pyridin-2-yl)nicotinamide], the midpoint of inhibition, the IC50, lay at 32 nM.
Consider `COc1ccccc1-c1cc(C(=O)O)ncc1C(=O)Nc1nc2ccc(-c3ccc(NC(C)=O)cc3)nc2s1` [Example 46, 5-((5-(4-acetamidophenyl)thiazolo[5,4-b]pyridin-2-yl)carbamoyl)-4-(2-methoxyphenyl)picolinic acid], for which 129 nM corresponded to half-maximal inhibition (IC50). Compared with the last molecule, the IC50 is about 4-fold higher.
`COc1ccccc1-c1cnncc1C(=O)Nc1nc2ccc(-c3ccn[nH]3)nc2s1` [Example 47, N-(5-(1H-pyrazol-5-yl)thiazolo[5,4-b]pyridin-2-yl)-5-(2-methoxyphenyl)pyridazine-4-carboxamide] gave a 50% inhibitory concentration (IC50) of 99 nM.
Regarding `COc1ccccc1-c1cnncc1C(=O)Nc1nc2ccc(-c3ccc(NS(C)(=O)=O)cc3)nc2s1` [Example 48, 5-(2-methoxyphenyl)-N-(5-(4-(methylsulfonamido)phenyl)thiazolo[5,4-b]pyridin-2-yl)pyridazine-4-carboxamide], half-maximal inhibition (IC50) was put at 9.5 nM.
The molecule `COc1ccc(OC)c(-c2cc(C)ncc2C(=O)Nc2nc3ccc(-c4ccc(C#N)cc4)nc3s2)c1` [Example 49, N-(5-(4-cyanophenyl)thiazolo[5,4-b]pyridin-2-yl)-4-(2,5-dimethoxyphenyl)-6-methylnicotinamide] yielded an IC50 of 150 nM. This IC50 lies about 16-fold higher than the previous one.
To `COc1ccc(C#N)cc1-c1cc(C)ncc1C(=O)Nc1nc2ccc(-c3ccc(NC(=O)C(C)C)cc3)nc2s1` [Example 50, 4-(5-cyano-2-methoxyphenyl)-N-(5-(4-isobutyramidophenyl)thiazolo[5,4-b]pyridin-2-yl)-6-methylnicotinamide] belongs 218 nM.
Molecule `COc1ccc(C#N)cc1-c1cc(C)ncc1C(=O)Nc1nc2ccc(-c3ccc(NC(=O)C(C)C)c(C)c3)nc2s1` [Example 51, 4-(5-cyano-2-methoxyphenyl)-N-(5-(4-isobutyramido-3-methylphenyl)thiazolo[5,4-b]pyridin-2-yl)-6-methylnicotinamide] displayed an IC50 of 15 nM.
As to `COc1ccc(S(C)(=O)=O)cc1-c1cc(C)ncc1C(=O)Nc1nc2ccc(-c3ccc(C#N)cc3)nc2s1` [Example 52, N-(5-(4-cyanophenyl)thiazolo[5,4-b]pyridin-2-yl)-4-(2-methoxy-5-(methylsulfonyl)phenyl)-6-methylnicotinamide], the concentration for half-maximal inhibition (IC50) was determined as 8.4 nM.
For `Cc1cc(-c2ccccc2C#N)c(C(=O)Nc2nc3ccc(-c4ccc(C#N)cc4)nc3s2)cn1` [Example 53, 4-(2-cyanophenyl)-N-(5-(4-cyanophenyl)thiazolo[5,4-b]pyridin-2-yl)-6-methylnicotinamide], it took 78 nM to reach half-maximal inhibition (IC50). This IC50 lies about 9.3-fold higher than the previous one.
The value for `Cc1cc(-c2ccc(=O)n(C)c2)c(C(=O)Nc2nc3ccc(-c4ccc(C#N)cc4)nc3s2)cn1` [Example 54, N-(5-(4-cyanophenyl)thiazolo[5,4-b]pyridin-2-yl)-1,6′-dimethyl-6-oxo-1,6-dihydro-[3,4′-bipyridine]-3′-carboxamide] was 64 nM.

Source of the values: patent US20250026766A1, “Thiazolopyridyl Amide Derivatives as DNA Polymerase Theta Inhibitors” (BeiGene, Ltd., priority 2022, published 2025).
